Data on 14 compounds can be found in PubChem BioAssay (NCI).

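Growth conditions: 96-well plates. Treatment: test compound, 48 hours, 5 concentrations. Analysis: linear interpolation between bracketing concentrations; unreached endpoints set to highest concentration. GI50 marks 50% less growth. TGI: total growth inhibition.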

Some test systems named below: COLO 205 colon; KM12 colon; OVCAR-5 ovarian; IGROV1 ovarian; CCRF-CEM leukemia; SNB-19 CNS; SNB-75 CNS; SK-OV-3 ovarian; TK-10 renal; LOX IMVI melanoma.
Assay in all cases: DTP human tumour cell line panel, 48 h

For the compound `O=c1[nH]c2ccc([N+](=O)[O-])cc2nc1/C=C(\O)c1ccccc1`, the TGI was greater than 100 µM with COLO 205 colon; greater than 100 µM with KM12 colon; greater than 100 µM in the experiment with OVCAR-5 ovarian; greater than 100 µM with IGROV1 ovarian; greater than 100 µM in the experiment on CCRF-CEM leukemia; 31.8 µM with SNB-19 CNS. For the same compound, the total growth inhibition concentration (TGI) in the experiment with SNB-75 CNS was found to be 58.3 µM; in the experiment with SK-OV-3 ovarian it was 33.7 µM; in the experiment with TK-10 renal it was 14.8 µM.
Consider `COC(=O)c1cc(/C=C\c2cc(OC)ccc2OC)ccc1OC`, for which the concentration for total growth inhibition (TGI) in the experiment with COLO 205 colon is 59.7 µM; in the experiment on KM12 colon, greater than 100 µM; in the experiment on OVCAR-5 ovarian, greater than 100 µM; in the experiment on IGROV1 ovarian, 42.2 µM; in the experiment with CCRF-CEM leukemia, greater than 100 µM; in the experiment on SNB-19 CNS, greater than 100 µM. Besides, the values for the concentration for total growth inhibition (TGI) in the experiment with SK-OV-3 ovarian, in the experiment on LOX IMVI melanoma and in the experiment on TK-10 renal were 83.6 µM, 56.9 µM and greater than 100 µM, respectively.
Take `CC(C)(C)C1=C(Br)C(OC(=O)C(F)(F)F)(C(C)(C)C)OP1(=O)c1ccccc1` (stereo not drawn): the total growth inhibition concentration (TGI) was 34 µM in the experiment with COLO 205 colon; greater than 100 µM in the experiment with KM12 colon; greater than 100 µM in the experiment with OVCAR-5 ovarian; greater than 100 µM in the experiment with IGROV1 ovarian; greater than 100 µM in the experiment with SNB-19 CNS; greater than 100 µM in the experiment with SNB-75 CNS. The TGI in the experiment with SK-OV-3 ovarian, with LOX IMVI melanoma and in the experiment on TK-10 renal was greater than 100 µM throughout.
For `CCn1c2ccccc2c2cc(Nc3cc(C)[nH]c(=O)n3)ccc21`, the concentration for total growth inhibition (TGI) in the experiment with COLO 205 colon, in the experiment on KM12 colon, in the experiment on OVCAR-5 ovarian, in the experiment on SNB-19 CNS, in the experiment on SK-OV-3 ovarian and in the experiment on TK-10 renal was greater than 100 µM each time.
Turning to `Cc1ccc(/C=C2/N=C(N/N=C\c3ccccc3)NC2=O)cc1`, the TGI in the experiment on COLO 205 colon was greater than 100 µM; in the experiment on KM12 colon, greater than 100 µM; in the experiment on OVCAR-5 ovarian, greater than 100 µM; in the experiment on IGROV1 ovarian, greater than 100 µM; with SNB-19 CNS, 90.5 µM; with SNB-75 CNS, greater than 100 µM. For the same compound, the total growth inhibition concentration (TGI) with SK-OV-3 ovarian, in the experiment with LOX IMVI melanoma and in the experiment on TK-10 renal was greater than 100 µM in each case.
Take `Cc1c(O)c(=O)ccn1CCc1ccc(O)cc1`: the TGI in the experiment on COLO 205 colon was greater than 100 µM; in the experiment on KM12 colon, greater than 100 µM; in the experiment with OVCAR-5 ovarian it was greater than 100 µM; in the experiment on CCRF-CEM leukemia, 42 µM; with SNB-19 CNS, greater than 100 µM; in the experiment on SK-OV-3 ovarian, greater than 100 µM. In addition, the results for the total growth inhibition concentration (TGI) in the experiment with LOX IMVI melanoma and with TK-10 renal were 53.9 µM and greater than 100 µM, respectively.
For `CC(=O)OCC1OC(n2c(-c3ccccc3)c(N=Nc3ccc(C)cc3)c(C)c(C#N)c2=S)C(OC(C)=O)C(OC(C)=O)C1OC(C)=O` (stereo not drawn), the TGI was greater than 100 µM in the experiment on COLO 205 colon; greater than 100 µM in the experiment on KM12 colon; 51.6 µM in the experiment on OVCAR-5 ovarian; greater than 100 µM with CCRF-CEM leukemia; 54.5 µM in the experiment on SNB-19 CNS; 64.1 µM in the experiment with LOX IMVI melanoma. This compound also had a TGI with TK-10 renal of 47.6 µM.
As to `COC(=O)C(NC(=O)OC(C)(C)C)P(=O)(OC)OC` (stereo not drawn), the TGI with COLO 205 colon, with KM12 colon, with OVCAR-5 ovarian, in the experiment on IGROV1 ovarian, in the experiment with SNB-19 CNS and in the experiment with SK-OV-3 ovarian was greater than 100 µM in each case. In addition, the TGI in the experiment with LOX IMVI melanoma and in the experiment with TK-10 renal was greater than 100 µM each time.
For the compound `CN1CCC2(CC1)C(=NC1CCCCC1)NC(=O)N2c1ccccc1`, the total growth inhibition concentration (TGI) with COLO 205 colon, in the experiment on KM12 colon, in the experiment on OVCAR-5 ovarian, in the experiment on IGROV1 ovarian, in the experiment on CCRF-CEM leukemia and in the experiment with SNB-19 CNS was greater than 100 µM each time. Besides, the TGI with SNB-75 CNS, in the experiment with SK-OV-3 ovarian and with TK-10 renal was greater than 100 µM throughout.
For the compound `C=C(C)[C@@H]1CC[C@]2(CO)CC[C@]3(C)[C@H](CC[C@@H]4[C@@]5(C)CC[C@H](NCO)C(C)(C)[C@@H]5CC[C@]43C)[C@@H]12`, the GI50 was 0.898 µM in the experiment with COLO 205 colon; 0.886 µM with KM12 colon; 0.85 µM with OVCAR-5 ovarian; 0.899 µM in the experiment on IGROV1 ovarian; 1.02 µM in the experiment with CCRF-CEM leukemia; 0.95 µM in the experiment with SNB-19 CNS. Also, the GI50 with SNB-75 CNS is 0.71 µM; in the experiment with SK-OV-3 ovarian, 0.87 µM; in the experiment on TK-10 renal, 0.965 µM. Further, the TGI with COLO 205 colon was 1.82 µM; in the experiment with KM12 colon, 1.63 µM; in the experiment with OVCAR-5 ovarian, 1.56 µM; in the experiment with IGROV1 ovarian it was 1.68 µM; in the experiment with CCRF-CEM leukemia, 3.21 µM; in the experiment on SNB-19 CNS, 1.82 µM. The concentration for total growth inhibition (TGI) was found to be 1.4 µM in the experiment with SNB-75 CNS, 1.61 µM in the experiment with SK-OV-3 ovarian and 1.78 µM in the experiment with TK-10 renal.
On to `COCCN1C(=O)C2c3[nH]c4ccccc4c3C3CCC(C(C)(C)C)CC3C2C1=O` (stereo not drawn), for which the TGI turned out to be 33.7 µM in the experiment with COLO 205 colon; 38.9 µM in the experiment on KM12 colon; 43.4 µM with IGROV1 ovarian; 87.2 µM with CCRF-CEM leukemia; 44.6 µM with SNB-19 CNS; 35.6 µM with SNB-75 CNS. In addition, the TGI is 42.7 µM with SK-OV-3 ovarian and greater than 10 µM in the experiment on TK-10 renal.
Take `O=C(O)c1ccc(N/C(=C(/C(Cl)=C(Cl)Cl)[N+](=O)[O-])n2nnc3ccccc32)cc1`: the TGI in the experiment on COLO 205 colon, in the experiment on KM12 colon, with OVCAR-5 ovarian, in the experiment with CCRF-CEM leukemia, in the experiment with SNB-19 CNS and in the experiment on SK-OV-3 ovarian was greater than 100 µM each time.
As for `NN/C(=N\S(=O)(=O)c1ccc(S(=O)(=O)c2ccccc2)s1)Nc1ccc(Cl)cc1`, the TGI in the experiment on COLO 205 colon was 46.2 µM; with KM12 colon it was 49.3 µM; in the experiment on OVCAR-5 ovarian, greater than 100 µM; in the experiment with IGROV1 ovarian it was 88.7 µM; with SNB-19 CNS it was greater than 100 µM; with SK-OV-3 ovarian it was greater than 100 µM. Besides, the concentration for total growth inhibition (TGI) with LOX IMVI melanoma is 36.6 µM; in the experiment on TK-10 renal, greater than 100 µM.
As for `CN(C)CN(C)c1nc(N(C)C)nc(N(C)CN(C)C)n1`, the TGI with COLO 205 colon was 61.6 µM; in the experiment on KM12 colon, greater than 100 µM; with IGROV1 ovarian, greater than 100 µM; in the experiment with CCRF-CEM leukemia, 61.1 µM; in the experiment on SNB-19 CNS, greater than 100 µM; in the experiment on SNB-75 CNS it was greater than 100 µM. In addition, the total growth inhibition concentration (TGI) was greater than 100 µM in the experiment with SK-OV-3 ovarian, 55.1 µM in the experiment with LOX IMVI melanoma and greater than 100 µM with TK-10 renal.
